Data taken from PubChem BioAssay (NCI).
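Where inhibition never reached the appropriate level, the endpoint shown equals the highest concentration tested. Otherwise, values were interpolated linearly from a five-concentration, 48-hour dose response in 96-well plates. At the TGI there is no net growth.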

Experiments:
Assay in all cases: NCI tumour cell line growth inhibition, 48 h
A549 NSCLC = test system: A549 NSCLC
ACHN renal = test system: ACHN renal
NCI-H460 lung = test system: NCI-H460 lung
SNB-78 CNS = test system: SNB-78 CNS
KM20L2 colon = test system: KM20L2 colon
LXFL 529 NSCLC = test system: LXFL 529 NSCLC
786-0 renal = test system: 786-0 renal
OVCAR-5 ovarian = test system: OVCAR-5 ovarian
MOLT-4 leukemia = test system: MOLT-4 leukemia
RXF-631 renal = test system: RXF-631 renal
SNB-19 CNS = test system: SNB-19 CNS
M14 melanoma = test system: M14 melanoma
K-562 leukemia = test system: K-562 leukemia
EKVX NSCLC = test system: EKVX NSCLC
OVCAR-8 ovarian = test system: OVCAR-8 ovarian
HCC-2998 colon = test system: HCC-2998 colon
UO-31 renal = test system: UO-31 renal
OVCAR-4 ovarian = test system: OVCAR-4 ovarian
TK-10 renal = test system: TK-10 renal
HCT-116 colon = test system: HCT-116 colon
SF-295 CNS = test system: SF-295 CNS
UACC-62 melanoma = test system: UACC-62 melanoma
U251 CNS = test system: U251 CNS
OVCAR-3 ovarian = test system: OVCAR-3 ovarian
NCI-H522 lung = test system: NCI-H522 lung
M19-MEL melanoma = test system: M19-MEL melanoma
CCRF-CEM leukemia = test system: CCRF-CEM leukemia
DLD-1 colon = test system: DLD-1 colon
SF-539 CNS = test system: SF-539 CNS
NCI-H23 lung = test system: NCI-H23 lung
SW-620 colon = test system: SW-620 colon
DMS 114 small cell lung = test system: DMS 114 small cell lung
HOP-62 NSCLC = test system: HOP-62 NSCLC
LOX IMVI melanoma = test system: LOX IMVI melanoma
NCI-H226 lung = test system: NCI-H226 lung
CAKI-1 renal = test system: CAKI-1 renal
KM12 colon = test system: KM12 colon
HCT-15 colon = test system: HCT-15 colon
SN12C renal = test system: SN12C renal
IGROV1 ovarian = test system: IGROV1 ovarian
SK-MEL-5 melanoma = test system: SK-MEL-5 melanoma
UACC-257 melanoma = test system: UACC-257 melanoma
HT29 colon = test system: HT29 colon
COLO 205 colon = test system: COLO 205 colon
SK-OV-3 ovarian = test system: SK-OV-3 ovarian
SK-MEL-28 melanoma = test system: SK-MEL-28 melanoma
XF 498 CNS = test system: XF 498 CNS
RPMI-8226 leukemia = test system: RPMI-8226 leukemia
SNB-75 CNS = test system: SNB-75 CNS
MALME-3M melanoma = test system: MALME-3M melanoma
HL-60(TB) leukemia = test system: HL-60(TB) leukemia
SF-268 CNS = test system: SF-268 CNS
HOP-92 NSCLC = test system: HOP-92 NSCLC
SK-MEL-2 melanoma = test system: SK-MEL-2 melanoma
DMS 273 small cell lung = test system: DMS 273 small cell lung
HOP-18 NSCLC = test system: HOP-18 NSCLC
A498 renal = test system: A498 renal
RXF 393 renal = test system: RXF 393 renal

Measured: TGI

C1=Cc2nc1c(-c1ccccc1)c1ccc([n-]1)c(-c1ccccc1)c1nc(c(-c3ccccc3)c3ccc([n-]3)c2-c2ccccc2)C=C1.[Zn+2]
not listed: DMS 273 small cell lung | HOP-18 NSCLC | A498 renal | RXF 393 renal
> 100 µM: all other assays above

CCN(CC)/C(=C\Cl)Nc1ccccn1
> 100 µM: all assays above
